What was measured:
[1] = system: eastern black nightshade; assay: Test C pre-/postemergence test; format: in vivo, Solanum ptycanthum
Description: Seeds of plant species selected from blackgrass (Alopecurus myosuroides), downy brome (Bromus tectorum), green foxtail (Setaria viridis), Italian ryegrass (Lolium multiflorum), wheat (Triticum aestivum), wild oat (Avena fatua), catchweed bedstraw (Galium aparine), Russian thistle (Salsola kali), […] (Cynodon dactylon), Surinam grass (Brachiaria decumbens), cocklebur (Xanthium strumarium), corn (Zea mays), crabgrass (Digitaria sanguinalis), woolly cupgrass (Eriochloa villosa), giant foxtail (Setaria faberii), Goosegrass (Eleusin indica), johnsongrass (Sorghum halepense), kochia (Kochia scoparia), lambsquarters (Chenopodium album), morningglory (Ipomoea coccinea), eastern black nightshade (Solanum ptycanthum), yellow nutsedge (Cyperus esculentus), pigweed (Amaranthus retroflexus), common ragweed (Ambrosia elation), soybean (Glycine max), common (oilseed) sunflower (Helianthus annuus), and velvetleaf (Abutilon theophrasti) were planted and treated preemergence with test chemicals formulated in a non-phytotoxic solvent mixture which included a surfactant. At the same time, plants selected from these crop and weed species and also winter barley (Hordeum vulgare), canarygrass (Phalaris minor), and chickweed (Stellaria media) were treated with postemergence applications of some of the test chemicals formulated in the same manner. Plants ranged in height from 2 to 18 cm (1- to 4-leaf stage) for postemergence treatments. […] At time of treatment, test pots were flooded to 3 cm above the soil surface, treated by application of test compounds directly to the paddy water, and then maintained at that water depth for the duration of the test. […] A dash (-) response means no test result.

[2] = system: giant foxtail; assay: Test A pre-/postemergence greenhouse test; format: in vivo, Setaria faberi; conditions: for Foxtail, Giant plant response rating: 0 to 100 scale
Method in brief: (§1)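 Test compounds in non-phytotoxic solvent with surfactant were applied as a preemergence soil spray to seeded loam/sand pots and, concurrently, postemergence to plants at 2–10 cm, one- to two-leaf stage. About ten days in greenhouse, then injury visually rated against untreated controls.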

[3] = system: corn; assay: Test A pre-/postemergence greenhouse test; format: in vivo, Zea mays; conditions: for Corn plant response rating: 0 to 100 scale
Method in brief: as §1

[4] = system: velvetleaf; assay: Test A pre-/postemergence greenhouse test; format: in vivo, Abutilon theophrasti; conditions: for Velvetleaf plant response rating: 0 to 100 scale
Method in brief: as §1

[5] = system: redroot pigweed; assay: Test A pre-/postemergence greenhouse test; format: in vivo, Amaranthus retroflexus; conditions: for Pigweed plant response rating: 0 to 100 scale
Method in brief: as §1

[6] = system: Goosegrass; assay: Test C pre-/postemergence test; format: in vivo, Eleusin indica; conditions: for Plant response rating, Goosegrass: scale 0 to 100, 0 no effect, 100 complete control
Method in brief: (§2)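 Seeds were planted and treated preemergence with test chemical in a non-phytotoxic solvent mixture containing surfactant. Postemergence applications of the same formulation went onto plants 2 to 18 cm tall (1- to 4-leaf stage). A dash marks no test result.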

[7] = system: bermudagrass; assay: Test C pre-/postemergence test; format: in vivo, Cynodon dactylon; conditions: for Plant response rating, Bermudagrass: Postemergence, scale 0 to 100, 0 no effect, 100 complete control
Method in brief: as §2

[8] = system: wild oat; assay: Test C pre-/postemergence test; format: in vivo, Avena fatua; conditions: for Plant response rating, Oat, Wild: scale 0 to 100, 0 no effect, 100 complete control
Method in brief: as §2

[9] = system: rice; assay: Test C flooded paddy test; format: in vivo, Oryza sativa; conditions: Flood
Method in brief: (§3)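 In-water treatment: compound dosed into 3 cm flood over soil, water level unchanged throughout. Controls run alongside; visual assessment at day 13–15.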

[10] = system: wheat; assay: Test A pre-/postemergence greenhouse test; format: in vivo, Triticum aestivum; conditions: for Wheat plant response rating: 0 to 100 scale
Method in brief: as §1

[11] = system: common ragweed; assay: Test C pre-/postemergence test; format: in vivo, Ambrosia elation; conditions: for Plant response rating, Ragweed: scale 0 to 100, 0 no effect, 100 complete control
Method in brief: as §2

[12] = system: barnyardgrass; assay: Test C flooded paddy test; format: in vivo, Echinochloa crus-galli; conditions: Flood
Method in brief: as §3

[13] = system: Surinam grass; assay: Test C pre-/postemergence test; format: in vivo, Brachiaria decumbens; conditions: for Surinam Grass plant response rating: preemergence, scale 0 (no effect) to 100 (complete control); for Plant response rating, Surinam Grass: scale 0 to 100, 0 no effect, 100 complete control
Method in brief: as §2

[14] = system: velvetleaf; assay: Test C pre-/postemergence test; format: in vivo, Abutilon theophrasti; conditions: Postemergence; for Plant response rating, Velvetleaf: scale 0 to 100, 0 no effect, 100 complete control
Method in brief: as §2

[15] = system: lambsquarters; assay: Test C pre-/postemergence test; format: in vivo, Chenopodium album; conditions: for Plant response rating, Lambsquarters: scale 0 to 100, 0 no effect, 100 complete control
Method in brief: as §2

[16] = system: giant foxtail; assay: Test C pre-/postemergence test; format: in vivo, Setaria faberii; conditions: for Plant response rating, Foxtail, Giant: scale 0 to 100, 0 no effect, 100 complete control
Method in brief: as §2

[17] = system: johnsongrass; assay: Test C pre-/postemergence test; format: in vivo, Sorghum halepense; conditions: for Plant response rating, Johnsongrass: scale 0 to 100, 0 no effect, 100 complete control
Method in brief: as §2

[18] = 31 g ai/ha, Preemergence, scale 0 to 100
[19] = 62 g ai/ha, preemergence, scale 0 (no effect) to 100 (complete control)
[20] = preemergence, 125 g ai/ha, scale 0 (no effect) to 100 (complete control)
[21] = Postemergence, 125 g ai/ha, 0 is no effect, 100 is complete control
[22] = Postemergence, 500 g ai/ha, 0 is no effect, 100 is complete control
[23] = Preemergence, 125 g ai/ha, 0 no effect, 100 complete control
[24] = Preemergence, 500 g ai/ha, 0 to 100 scale where 0 is no effect and 100 is complete control
[25] = 31 g ai/ha, scale 0 to 100 (0 no effect, 100 complete control)
[26] = 62 g ai/ha, scale 0 to 100, 0 no effect, 100 complete control, 13 to 15 days
[27] = 125 g ai/ha, scale 0 to 100, 0 no effect, 100 complete control, 13 to 15 days
[28] = 250 g ai/ha, scale 0 to 100 (0 no effect, 100 complete control)

Cc1cc[n+]([O-])c([S+]([O-])Cc2c(C(F)(F)F)nn(C)c2OC(F)F)c1 (stereo not shown) [Compound 1]
Nightshade plant response rating [1, 18]: 70 | Nightshade plant response rating [1, 19]: 100 | Plant response rating (0 to 100), Nightshade ([1]; Preemergence, 250 g ai/ha): 100 | Nightshade plant response rating [1, 20]: 100 | Foxtail, Giant plant response rating [2, 21]: 80 | Foxtail, Giant plant response rating [2, 22]: 90 | Foxtail, Giant plant response rating [2, 23]: 100 | Plant response rating, Foxtail, Giant [2, 24]: 100 | Corn plant response rating [3, 21]: 50 | Corn plant response rating [3, 22]: 80 | Corn plant response rating [3, 23]: 0 | Plant response rating, Corn [3, 24]: 70 | Velvetleaf plant response rating [4, 21]: 50 | Velvetleaf plant response rating [4, 22]: 70 | Velvetleaf plant response rating [4, 23]: 30 | Plant response rating, Velvetleaf [4, 24]: 100 | Pigweed plant response rating [5, 21]: 100 | Pigweed plant response rating [5, 22]: 100 | Pigweed plant response rating [5, 23]: 100 | Plant response rating, Pigweed [5, 24]: 100 | Goosegrass plant response rating [6, 18]: 70 | Goosegrass plant response rating [6, 19]: 100 | Plant response rating (0 to 100), Goosegrass ([6]; Postemergence, 31 g ai/ha): 0 | Plant response rating, Goosegrass ([6]; Postemergence, 62 g ai/ha): 0 | Plant response rating, Goosegrass ([6]; Postemergence, 125 g ai/ha): 30 | Plant response rating, Goosegrass ([6]; Postemergence, 250 g ai/ha): 80 | Plant response rating (0 to 100), Goosegrass ([6]; Preemergence, 250 g ai/ha): 100 | Goosegrass plant response rating [6, 20]: 100 | Bermudagrass plant response rating [7, 18]: 85 | Bermudagrass plant response rating [7, 19]: 90 | Plant response rating, Bermudagrass ([7]; 125 g ai/ha): 70 | Plant response rating, Bermudagrass ([7]; 250 g ai/ha): 80 | Plant response rating (0 to 100), Bermudagrass ([7]; Preemergence, 250 g ai/ha): 100 | Bermudagrass plant response rating [7, 20]: 100 | Oat, Wild plant response rating [8, 18]: 50 | Oat, Wild plant response rating [8, 19]: 85 | Plant response rating (0 to 100), Oat, Wild ([8]; Postemergence, 31 g ai/ha): 0 | Plant response rating, Oat, Wild ([8]; Postemergence, 62 g ai/ha): 0 | Plant response rating, Oat, Wild ([8]; Postemergence, 125 g ai/ha): 0 | Plant response rating, Oat, Wild ([8]; Postemergence, 250 g ai/ha): 0 | Plant response rating (0 to 100), Oat, Wild ([8]; Preemergence, 250 g ai/ha): 100 | Oat, Wild plant response rating [8, 20]: 95 | Plant response rating, Rice [9, 25]: 0 | Plant response rating, Rice [9, 26]: 0 | Plant response rating, Rice [9, 27]: 80 | Plant response rating, Rice [9, 28]: 80 | Wheat plant response rating [10, 21]: 70 | Wheat plant response rating [10, 22]: 70 | Wheat plant response rating [10, 23]: 60 | Plant response rating, Wheat [10, 24]: 90 | Ragweed plant response rating [11, 18]: 0 | Ragweed plant response rating [11, 19]: 10 | Plant response rating (0 to 100), Ragweed ([11]; Postemergence, 31 g ai/ha): 0 | Plant response rating (0 to 100), Ragweed ([11]; Postemergence, 62 g ai/ha): 0 | Plant response rating, Ragweed ([11]; Postemergence, 125 g ai/ha): 10 | Plant response rating, Ragweed ([11]; Postemergence, 250 g ai/ha): 20 | Plant response rating (0 to 100), Ragweed ([11]; Preemergence, 250 g ai/ha): 85 | Ragweed plant response rating [11, 20]: 85 | Plant response rating, Barnyardgrass [12, 25]: 0 | Plant response rating, Barnyardgrass [12, 26]: 0 | Plant response rating, Barnyardgrass [12, 27]: 80 | Plant response rating, Barnyardgrass [12, 28]: 80 | Surinam Grass plant response rating ([13]; 62 g ai/ha): 100 | Plant response rating (0 to 100), Surinam Grass ([13]; Postemergence, 31 g ai/ha): 0 | Plant response rating (0 to 100), Surinam Grass ([13]; Postemergence, 62 g ai/ha): 0 | Plant response rating, Surinam Grass ([13]; Postemergence, 125 g ai/ha): 30 | Plant response rating, Surinam Grass ([13]; Postemergence, 250 g ai/ha): 60 | Plant response rating (0 to 100), Surinam Grass ([13]; Preemergence, 250 g ai/ha): 100 | Surinam Grass plant response rating ([13]; 125 g ai/ha): 100 | Plant response rating (0 to 100), Velvetleaf ([14]; 31 g ai/ha): 10 | Plant response rating (0 to 100), Velvetleaf ([14]; 62 g ai/ha): 40 | Plant response rating, Velvetleaf ([14]; 125 g ai/ha): 45 | Plant response rating, Velvetleaf ([14]; 250 g ai/ha): 60 | Lambsquarters plant response rating [15, 18]: 100 | Lambsquarters plant response rating [15, 19]: 100 | Plant response rating (0 to 100), Lambsquarters ([15]; Postemergence, 31 g ai/ha): 0 | Plant response rating, Lambsquarters ([15]; Postemergence, 62 g ai/ha): 40 | Plant response rating, Lambsquarters ([15]; Postemergence, 125 g ai/ha): 40 | Plant response rating, Lambsquarters ([15]; Postemergence, 250 g ai/ha): 70 | Plant response rating (0 to 100), Lambsquarters ([15]; Preemergence, 250 g ai/ha): 100 | Lambsquarters plant response rating [15, 20]: 100 | Foxtail, Giant plant response rating [16, 18]: 60 | Foxtail, Giant plant response rating [16, 19]: 70 | Plant response rating (0 to 100), Foxtail, Giant ([16]; Postemergence, 31 g ai/ha): 0 | Plant response rating, Foxtail, Giant ([16]; Postemergence, 62 g ai/ha): 0 | Plant response rating, Foxtail, Giant ([16]; Postemergence, 125 g ai/ha): 45 | Plant response rating, Foxtail, Giant ([16]; Postemergence, 250 g ai/ha): 60 | Plant response rating (0 to 100), Foxtail, Giant ([16]; Preemergence, 250 g ai/ha): 100 | Foxtail, Giant plant response rating [16, 20]: 100 | Johnsongrass plant response rating [17, 18]: 80 | Johnsongrass plant response rating [17, 19]: 90 | Plant response rating (0 to 100), Johnsongrass ([17]; Postemergence, 31 g ai/ha): 0 | Plant response rating, Johnsongrass ([17]; Postemergence, 62 g ai/ha): 0 | Plant response rating, Johnsongrass ([17]; Postemergence, 125 g ai/ha): 0 | Plant response rating, Johnsongrass ([17]; Postemergence, 250 g ai/ha): 10 | Plant response rating (0 to 100), Johnsongrass ([17]; Preemergence, 250 g ai/ha): 100 | Johnsongrass plant response rating [17, 20]: 100

From patent US20100298141A1, “SUBSTITUTED PYRIDINE N-OXIDE HERBICIDES” (E. I. DU PONT DE NEMOURS AND COMPANY, priority 2007, published 2010)
